The test system of one data set is gastric secretion. Description: Gastric antisecretory properties: gastric secretion after Shay ligature, intraduodenal. The data set is classed as in vivo. The conditions noted are these: intraduodenal, rat, read-out: Reduction of volume of gastric secretion. The source says:
Administered intraduodenally to a rat, the compounds of formula (I) are capable of reducing gastric secretion measured after Shay ligature.

The nature of data set [1]: Acute toxicity, lethal dose 50. Conditions: mouse, in vivo, po, read-out: Lethal dose 50 (mouse) / DL 50 (mouse) (converted).
A further data set deals with stress ulcers. Put plainly: Anti-ulcerous properties: ulcerations in rat under stress for 7 hours, oral. The data set is classed as in vivo. Conditions: po, read-out: Percentage reduction of stress ulcers.
The next data set has as its system jejunal ansa of a rabbit. Put plainly: Spasmolytic in vivo: contractions of the jejunal ansa caused by electric stimulation. An excerpt: (§1) The compounds of formula (I), administered intraduodenally are capable of reducing the contractions of the jejunal ansa of a rabbit, caused by electric stimulation.
For another data set, the system named is Shay's ulcer. Description: Anti-ulcerous properties: ulceration caused by ligature of the pylorus (Shay's ulcers), intraduodenal. The data set is classed as in vivo. The conditions noted are these: rat, read-out: Percentage reduction of Shay's ulcer. An excerpt:
Furthermore, the compounds of formula (I) administered intraduodenally reduce the ulceration area caused by ligature of the pylorus of a rat (Shay's ulcers).

The test system of data set [2] is bronchoconstriction caused by acetylcholine. Put plainly: Anticholinergic and antibronchoconstrictive: bronchoconstriction by intravenous acetylcholine, Konzett's method. The data set is classed as in vivo. The conditions noted are these: Cavia porcellus, guinea-pig, read-out: Percentage inhibition of the bronchoconstriction. The source says:
Injected intravenously or intraduodenally, the compounds of formula (I) are capable of opposing bronchoconstriction caused in a guinea-pig by intravenous injection of acetylcholine and evaluated by Konzett's method.

Another data set has as its system painful stretchings. Put plainly: Analgesic: painful stretchings following intraperitoneal injection of acetic acid. In kind it is in vivo. The conditions noted are these: po, mouse, read-out: Percentage diminution painful stretchings. The source says: The compounds of formula (I), administered orally to a mouse, are capable of reducing the number of painful stretchings following intraperitioneal injection of acetic acid.

The subject of data set [3] is uterine horn of a female rabbit. Put plainly: Spasmolytic in vivo: contractions of the uterine horn caused by electric stimulation. The conditions noted are these: 53 mg/kg/i.d. How it is done:
as §1
The same test was studied with the uterine horn of a female rabbit.
For example, compound No 73.0442, administered at a dose of 53 mg/kg/i.d. reduces by 85 % for more than an hour, the contractions of the uterine horn of a female rabbit caused by electric stimulation.

The subject of another data set is sub-plantar oedema. Put plainly: Anti-inflammatory: sub-plantar oedema caused by carragenine. In kind it is in vivo. The conditions noted are these: po; rat, 50 mg/kg/p.o.; read-out: Percentage reduction of sub-plantar oedema.
A further data set relates to arterial pressure. Description: Anti-hypertensive: arterial pressure in genetically hyperstressed vigil rats (S.H.R.). The data set is classed as in vivo, rat. The conditions noted are these: 4 hours. How it is done: The compounds of formula (I) are capable, 4 hours after their oral injection, of bringing the arterial pressure down to normal in genetically hyperstressed vigil rats (S.H.R.).

The subject of the next data set is volume of urine emitted. Description: Diuretic: volume of urine emitted. In kind it is in vivo. Conditions: po; rat, urine volume for 6 hours following administration; read-out: DE 50 (diuretic). How it is done: The compounds of formula (I), administered orally to a rat, increase the volume of urine emitted, relative to controls, the volume being measured for the 6 hours following administration.

Regarding `CC(C)NC(=O)CN1CCN(Cc2nc3ccccc3n2CCC(=O)c2ccccc2)CC1` [73 0442], the inhibition in vivo at 2.1 mg/kg in the data set on gastric secretion (2.1 mg/kg/i.d.) amounted to 68%. Also, the LD50 in [1] is 798 mg/kg. Moreover, the inhibition in vivo at 5.2 mg/kg with stress ulcers (5.2 mg/kg/p.o.) turned out to be 99%. Moreover, the “Diminution of contractions of the jejunum for more than an hour” value in the data set with jejunal ansa of a rabbit (26.5 mg/kg/i.d.) came out at 67%. In addition, the inhibition in vivo at 7.6 mg/kg with Shay's ulcer (7.6 mg/kg/i.d.) came out at 88%. Also, the inhibition in vivo at 25 mg/kg in data set [2] (intraduodenal, i.d., 25 mg/kg) stood at 100%. Also, in the data set with painful stretchings (100 mg/kg/p.o.), the inhibition in vivo at 100 mg/kg was 80%. For the same compound, the “reduction of the contractions of the uterine horn for more than an hour” value in data set [3] is reported as 85%.

As for `CCN(CC)C(=O)CN1CCN(Cc2nc3ccccc3n2CCC(=O)c2ccccc2)CC1` [74 0184], the inhibition in vivo at 1.5 mg/kg with gastric secretion (1.5 mg/kg/i.d.) was 77%. Moreover, the LD50 in data set [1] was 1300 mg/kg. The inhibition in vivo at 7.4 mg/kg in the data set with stress ulcers (7.4 mg/kg/p.o.) and in the data set on Shay's ulcer (7.4 mg/kg/i.d.) was 100% each time. Also, the “Diminution of contractions of the jejunum for more than an hour” value in the data set with jejunal ansa of a rabbit (14.9 mg/kg/i.d.) was 39%. Further, in [2] (iv, i.v., 4 mg/kg), the inhibition in vivo at 4 mg/kg amounted to 100%. In addition, the values for the inhibition in vivo at 50 mg/kg in the data set with painful stretchings (50 mg/kg/p.o.) and with sub-plantar oedema were 63% and 65%, respectively.

On to `CC(C)NC(=O)CN1CCN(Cc2nc3ccccc3n2CCC(=O)c2ccc([N+](=O)[O-])cc2)CC1` [74 0747], for which, in data set [1], the LD50 was 2200 mg/kg. For the same compound, the “arterial pressure brought down to normal” value with arterial pressure (150 mg/kg/p.o.) is given as 4 animals out of 7.

Consider `COc1ccccc1C(=O)CCn1c(CN2CCN(CC(=O)NC(C)C)CC2)nc2ccccc21` [75 0011], for which, in the data set on gastric secretion (25 mg/kg/i.d.), the inhibition in vivo at 25 mg/kg is 75%. In addition, the LD50 in data set [1] was 120 mg/kg. Further, the “arterial pressure brought down to normal” value with arterial pressure (10 mg/kg/p.o.) is recorded as 4 animals out of 7. For the same compound, the inhibition in vivo at 20 mg/kg with stress ulcers (20 mg/kg/p.o.) turned out to be 51%. For the same compound, the inhibition in vivo at 40 mg/kg in the data set on Shay's ulcer (40 mg/kg/i.d.) stood at 78%. Also, the ED50 with volume of urine emitted worked out at 1 mg/kg.

The values are drawn from patent US4104384A, “1-(2'-Aroyl eth-1'yl) 2-(4"-acetamido piperazine-1"yl methyl) benzimidazoles and their therapeutical applications” (priority 1975, dated 1978).
